Laboratory results as given in publication doi:10.1101/2021.10.07.463234v2 (biorxiv, 2021).
Counter-ions that a name gives are not always drawn.

Target: SARS-CoV-2 Mac1 (Severe acute respiratory syndrome coronavirus 2, UniProt P0DTD1)
Assay: biochemical
Details: for inhibition at 100 µM: read-out: %inhibition; for %inhibition: 100 µM, inhibitor

SMILES | inhibition at 100 µM [%] | %inhibition [%]
N=C(N)NC(=O)Cc1c(Cl)cccc1Cl [Guanfacine Hydrochloride] | 0 | –
N=C(N)N [Guanidine HCl] | 14 | –
CC1(C)O[C@@H]2C[C@H]3[C@@H]4CCC5=CC(=O)CC[C@]5(C)[C@@]4(F)[C@@H](O)C[C@]3(C)[C@]2(C(=O)CCl)O1 [Halcinonide] | 25.9 | –
CCC(=O)O[C@]1(C(=O)CCl)[C@@H](C)C[C@H]2[C@@H]3C[C@H](F)C4=CC(=O)C=C[C@]4(C)[C@@]3(F)[C@@H](O)C[C@@]21C [Halobetasol Propionate] | 24.3 | –
FC(F)(F)C(Cl)Br (stereo not drawn) [Halothane] | 0 | –
Oc1c(Cl)cc(Cl)c(Cl)c1Cc1c(O)c(Cl)cc(Cl)c1Cl [Hexachlorophene] | 0 | –
C[N+](C)(C)CCCCCC[N+](C)(C)C [Hexamethonium?Dibromide] | 0 | –
CC[C@H](c1ccc(O)cc1)[C@@H](CC)c1ccc(O)cc1 [Hexestrol] | 0 | –
CCCCCCc1ccc(O)cc1O [Hexylresorcinol] | 0 | –
NCCc1c[nH]cn1 [Histamine 2HCl] | – | 6.627
NCCc1c[nH]cn1 [Histamine Phosphate] | – | 0
C[N+]1(C)[C@@H]2CC[C@H]1C[C@@H](OC(=O)C(O)c1ccccc1)C2 (stereo partly drawn) [Homatropine Methylbromide] | 0 | –
NNc1nncc2ccccc12 [Hydralazine HCl] | 6.58 | –
CC(=O)OCC(=O)[C@@]1(O)CC[C@H]2[C@@H]3CCC4=CC(=O)CC[C@]4(C)[C@H]3[C@@H](O)C[C@@]21C [Hydrocortisone acetate] | 0 | –
C[C@]12CCC(=O)C=C1CC[C@@H]1[C@@H]2[C@@H](O)C[C@@]2(C)[C@H]1CC[C@]2(O)C(=O)CO [Hydrocortisone] | 5.07 | –
CC[C@H]1CN2CC[C@H]1C[C@@H]2[C@@H](O)c1ccnc2ccc(OC)cc12 [Hydroquinidine] | 4.48 | –
Oc1ccc(O)cc1 [Hydroquinone] | 7.86 | –
CCN(CCO)CCCC(C)Nc1ccnc2cc(Cl)ccc12 (stereo not drawn) [Hydroxychloroquine Sulfate] | – | 0
CC(O)c1ccc(S(=O)(=O)NC(=O)NC2CCCCC2)cc1 (stereo not drawn) [Hydroxyhexamide] | 28 | –
CCCCCC(=O)O[C@]1(C(C)=O)CC[C@H]2[C@@H]3CCC4=CC(=O)CC[C@]4(C)[C@H]3CC[C@@]21C [Hydroxyprogesterone caproate] | 8.48 | –
NC(=O)NO [Hydroxyurea] | 20.8 | –
OCCOCCN1CCN(C(c2ccccc2)c2ccc(Cl)cc2)CC1 (stereo not drawn) [Hydroxyzine 2HCl] | 11.4 | –
CN[C@H]1C[C@@H](N)[C@H](O)[C@@H](O[C@@H]2O[C@H](CO)[C@H](O)[C@@H]3OC4(O[C@H]23)O[C@H]([C@@H](N)CO)[C@H](O)[C@H](O)[C@H]4O)[C@@H]1O (stereo partly drawn) [Hygromycin B] | 0 | –
CCCCCN(C)CCC(O)(P(=O)(O)O)P(=O)(O)O [Ibandronate sodium] | 4.37 | –
C=CC(=O)N1CCC[C@@H](n2nc(-c3ccc(Oc4ccccc4)cc3)c3c(N)ncnc32)C1 [Ibrutinib (PCI-32765)] | 6.43 | –
CC(C)C(=O)c1c(C(C)C)nn2ccccc12 [Ibudilast] | 0 | –

SMILES | inhibition at 100 µM [%] | %inhibition [%]
CC(C)Cc1ccc(C(C)C(=O)O)cc1 (stereo not drawn) [Ibuprofen] | 0 | –
CCCCCCCN(CC)CCCC(O)c1ccc(NS(C)(=O)=O)cc1 (stereo not drawn) [Ibutilide Fumarate] | 0 | –
C#Cc1cccc(Nc2ncnc3cc4c(cc23)OCCOCCOCCO4)c1 [Icotinib] | 15.2 | –
COc1cc(C(=O)O)ccc1NC(=O)[C@@H]1N[C@@H](CC(C)(C)C)[C@](C#N)(c2ccc(Cl)cc2F)[C@H]1c1cccc(Cl)c1F [Idasanutlin (RG-7388)] | 0 | –
COC1=C(OC)C(=O)C(CCCCCCCCCCO)=C(C)C1=O [Idebenone] | 7.11 | –
CC[C@H](Nc1ncnc2[nH]cnc12)c1nc2cccc(F)c2c(=O)n1-c1ccccc1 [Idelalisib (CAL-101, GS-1101)] | 0 | –
O=c1[nH]c(=O)n([C@H]2C[C@H](O)[C@@H](CO)O2)cc1I [Idoxuridine] | 44.1 | –
O=C1C2CC3CC1CC(O)(C3)C2 [Idramantone] | 3.83 | –
CC(C(O)c1ccc(O)cc1)N1CCC(Cc2ccccc2)CC1 (stereo not drawn) [Ifenprodil Tartrate] | 34.6 | –
O=P1(NCCCl)OCCCN1CCCl (stereo not drawn) [Ifosfamide] | 10.6 | –
CS(=O)(=O)Nc1cc2occ(NC=O)c(=O)c2cc1Oc1ccccc1 [Iguratimod] | 4.14 | –
CNC(=O)[C@H](Cc1c[nH]c2ccccc12)NC(=O)[C@@H](CC(=O)NO)CC(C)C [Ilomastat (GM6001, Galardin)] | 21 | –
COc1cc(C(C)=O)ccc1OCCCN1CCC(c2noc3cc(F)ccc23)CC1 [Iloperidone] | 0 | –
Cc1nccn1CCC(C(N)=O)(c1ccccc1)c1ccccc1 [Imidafenacin] | 8.33 | –
CCOC(=O)[C@H](CCc1ccccc1)N[C@@H](C)C(=O)N1C(=O)N(C)C[C@H]1C(=O)O [Imidapril HCl] | 0 | –
C[C@@H](O)[C@H]1C(=O)N2C(C(=O)O)=C(SCCNC=N)C[C@H]12 [Imipenem] | 9.79 | –
CN(C)CCCN1c2ccccc2CCc2ccccc21 [Imipramine HCl] | 2.2 | –
CC(C)Cn1cnc2c(N)nc3ccccc3c21 [Imiquimod] | 26.3 | –
CCc1cc2c(cc1CC)CC(NC[C@H](O)c1ccc(O)c3[nH]c(=O)ccc13)C2 [Indacaterol Maleate] | – | 2.994
CCc1cc2c(cc1CC)CC(NC[C@H](O)c1ccc(O)c3[nH]c(=O)ccc13)C2 [Indacaterol] | – | 1.05
CC1Cc2ccccc2N1NC(=O)c1ccc(Cl)c(S(N)(=O)=O)c1 (stereo not drawn) [Indapamide] | 36.3 | –
O=C1/C(=C2\Nc3ccc(S(=O)(=O)O)cc3C2=O)Nc2ccc(S(=O)(=O)O)cc21 [Indigo carmine] | 39.3 | –
O=C1/C(=C2\Nc3ccccc3C2=O)Nc2ccccc21 [Indigo] | 9.76 | –
COc1ccc2c(c1)c(CC(=O)O)c(C)n2C(=O)c1ccc(Cl)cc1 [Indometacin Sodium] | – | 0
COc1ccc2c(c1)c(CC(=O)O)c(C)n2C(=O)c1ccc(Cl)cc1 [Indomethacin] | – | 39.29
NC(=O)c1ccc(I)c([N+](=O)[O-])c1 [Iniparib (BSI-201)] | 31 | –

SMILES | inhibition at 100 µM [%] | %inhibition [%]
O=c1[nH]cnc2c1ncn2[C@@H]1O[C@H](CO)[C@@H](O)[C@H]1O [Inosine] | 0 | –
CC(=O)N(CC(O)CN(C(C)=O)c1c(I)c(C(=O)NC[C@@H](O)CO)c(I)c(C(=O)NC[C@@H](O)CO)c1I)c1c(I)c(C(=O)NC[C@@H](O)CO)c(I)c(C(=O)NC[C@@H](O)CO)c1I [Iodixanol] | 0.797 | –
C[C@H](O)C(=O)Nc1c(I)c(C(=O)NC(CO)CO)c(I)c(C(=O)NC(CO)CO)c1I [Iopamidol] | 0 | –
CCC(Cc1c(I)cc(I)c(N)c1I)C(=O)O (stereo not drawn) [Iopanoic acid] | 0 | –
O=C(NCC(O)CO)c1c(I)c(C(=O)NCC(O)CO)c(I)c(N(CCO)C(=O)CO)c1I (stereo not drawn) [Ioversol] | 25.5 | –
CC(C)[N+]1(C)[C@@H]2CC[C@H]1C[C@@H](OC(=O)C(CO)c1ccccc1)C2 (stereo partly drawn) [Ipratropium Bromide] | 9.25 | –
CC(C)Oc1ccc2c(=O)c(-c3ccccc3)coc2c1 [Ipriflavone (Osteofix)] | 0 | –
CCCCC1=NC2(CCCC2)C(=O)N1Cc1ccc(-c2ccccc2-c2nnn[nH]2)cc1 [Irbesartan] | 2.32 | –
CCc1c2c(nc3ccc(OC(=O)N4CCC(N5CCCCC5)CC4)cc13)-c1cc3c(c(=O)n1C2)COC(=O)[C@]3(O)CC [Irinotecan HCl Trihydrate] | 0 | –
Nc1nc(N)nc(-c2cc(Cl)ccc2Cl)n1 [Irsogladine] | 22.5 | –
C[C@@H](c1nc(-c2ccc(C#N)cc2)cs1)[C@](O)(Cn1cncn1)c1cc(F)ccc1F [Isavuconazole] | 0 | –
CN[C@@H]1[C@@H](O)[C@@H](O[C@@H]2[C@@H](O)[C@H](O[C@H]3O[C@H](CN)[C@@H](O)[C@H](O)[C@H]3O)[C@@H](N)C[C@H]2NC(=O)[C@@H](O)CN)OC[C@]1(C)O [Isepamicin Sulphate] | 5.6 | –
Clc1ccc(C(Cn2ccnc2)OCc2c(Cl)cccc2Cl)c(Cl)c1 (stereo not drawn) [Isoconazole nitrate] | 34.7 | –
CCC(NC(C)C)C(O)c1ccc(O)c(O)c1 (stereo not drawn) [Isoetharine Mesylate] | 17.6 | –
NNC(=O)c1ccncc1 [Isoniazid] | 24.4 | –
CC(C)NCC(O)c1ccc(O)c(O)c1 (stereo not drawn) [Isoprenaline HCl] | 5.07 | –
O=[N+]([O-])O[C@@H]1CO[C@H]2[C@@H]1OC[C@@H]2O [Isosorbide Mononitrate] | 2.49 | –
O[C@@H]1CO[C@H]2[C@@H]1OC[C@@H]2O [Isosorbide] | 17.9 | –
CC1=C(/C=C/C(C)=C/C=C/C(C)=C\C(=O)O)C(C)(C)CCC1 [Isotretinoin] | 0 | –
Cc1cc(NC(=O)C2=C(O)c3ccccc3S(=O)(=O)N2C)no1 [Isoxicam] | 13.6 | –
Cc1ccc(C(=O)N(CCCN)[C@@H](c2nc3cc(Cl)ccc3c(=O)n2Cc2ccccc2)C(C)C)cc1 [Ispinesib (SB-715992)] | 0 | –
COC(=O)C1=C(C)NC(C)=C(C(=O)OC(C)C)C1c1cccc2nonc12 (stereo not drawn) [Isradipine] | 0 | –
CCn1c(=O)c2c(nc(/C=C/c3ccc(OC)c(OC)c3)n2C)n(CC)c1=O [Istradefylline] | 28.9 | –
COc1ccc(C(=O)NCc2ccc(OCCN(C)C)cc2)cc1OC [Itopride hydrochloride] | 0 | –
COc1cc2c(cc1OC)CC(=O)N(CCCN(C)C[C@H]1Cc3cc(OC)c(OC)cc31)CC2 [Ivabradine HCl] | 0 | –
CC(C)(C)c1cc(C(C)(C)C)c(NC(=O)c2c[nH]c3ccccc3c2=O)cc1O [Ivacaftor (VX-770)] | 5.97 | –
